Experimental findings from PubChem BioAssay (NCI) are described below.

Some test systems named below: A549 NSCLC; BT-549 breast; CAKI-1 renal; DU-145 prostate; EKVX NSCLC; HCC-2998 colon; KM12 colon; MDA-MB-435; SF-295 CNS; SK-MEL-2 melanoma; SN12C renal; UO-31 renal; HS 578T breast; LOX IMVI melanoma; MALME-3M melanoma; MDA-MB-231 breast; NCI-H23 lung; NCI-H522 lung; SF-539 CNS.
Holding throughout (test): growth of human tumour cells (NCI), 48 h

The structures appear in SMILES notation.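 How tested: cells in 96-well plates exposed to compound for 48 hours at five concentrations. TGI marks complete inhibition of growth.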 A value given as a limit tells only on which side of the number the result lay.

`CN=C(N)N/N=C(\C)c1ccc2oc3ccc(/C(C)=N/NC(N)=NC)cc3c2c1`: the TGI was greater than 100 µM with A549 NSCLC; greater than 22.8 µM in the experiment with BT-549 breast; 83 µM in the experiment with CAKI-1 renal; greater than 100 µM in the experiment with DU-145 prostate; greater than 100 µM in the experiment with EKVX NSCLC; 4.97 µM with HCC-2998 colon. In addition, the TGI with KM12 colon was greater than 100 µM; in the experiment on MDA-MB-435, greater than 100 µM; in the experiment on SF-295 CNS it was greater than 100 µM; with SK-MEL-2 melanoma, 5.24 µM; with SN12C renal, greater than 24.5 µM; in the experiment with UO-31 renal it was greater than 100 µM.
Turning to `COc1cc(/C=C/C2=NN(c3cccc(S(=O)(=O)O)c3)C3(C2)C(Cl)C(=O)N3c2nc3ccccc3s2)ccc1O` (stereo not drawn), the TGI is greater than 100 µM in the experiment with A549 NSCLC; 29.1 µM in the experiment on BT-549 breast; 33 µM in the experiment with CAKI-1 renal; 42.3 µM in the experiment with EKVX NSCLC; 38.2 µM in the experiment with HCC-2998 colon; greater than 100 µM in the experiment with HS 578T breast. In addition, the TGI came to 41.2 µM in the experiment with KM12 colon; 27.5 µM in the experiment with LOX IMVI melanoma; 34.5 µM with MALME-3M melanoma; 47.1 µM in the experiment with MDA-MB-231 breast; 32.1 µM in the experiment on MDA-MB-435; 29.6 µM in the experiment on NCI-H23 lung. Also, the TGI in the experiment on NCI-H522 lung was 30.4 µM; in the experiment on SF-539 CNS, 46 µM; in the experiment with SK-MEL-2 melanoma, greater than 100 µM; in the experiment on SN12C renal, 47.5 µM; in the experiment on UO-31 renal, 33.6 µM.
For `CC(C)(C)OC(=O)CN1CCNCCN(CC(=O)OC(C)(C)C)CC1`, the TGI with A549 NSCLC, in the experiment with BT-549 breast, with CAKI-1 renal, in the experiment with DU-145 prostate, in the experiment with EKVX NSCLC and with HCC-2998 colon was greater than 100 µM each time. The TGI with HS 578T breast, with KM12 colon, in the experiment on LOX IMVI melanoma, in the experiment on MALME-3M melanoma, with MDA-MB-231 breast and with NCI-H522 lung was greater than 100 µM throughout. Besides, the TGI with SF-295 CNS, in the experiment with SF-539 CNS, with SK-MEL-2 melanoma, in the experiment with SN12C renal and with UO-31 renal was greater than 100 µM in each case.
Regarding `COC(=O)c1cc(-c2c[nH]cc2C(=O)OCc2ccccc2)cn1S(=O)(=O)c1ccc(C)cc1`, the TGI in the experiment with A549 NSCLC, with BT-549 breast, with CAKI-1 renal, in the experiment on DU-145 prostate, in the experiment on EKVX NSCLC and in the experiment on HCC-2998 colon was greater than 100 µM in each case. For the same compound, the TGI in the experiment with HS 578T breast, with KM12 colon, in the experiment with LOX IMVI melanoma, in the experiment with MALME-3M melanoma, in the experiment on MDA-MB-231 breast and in the experiment with NCI-H23 lung was greater than 100 µM throughout. In addition, the TGI in the experiment with NCI-H522 lung, in the experiment on SF-295 CNS, in the experiment with SF-539 CNS, with SK-MEL-2 melanoma, in the experiment on SN12C renal and in the experiment on UO-31 renal was greater than 100 µM in each case.
Turning to `CCOC(=O)C(NC(=O)NC(C(=O)OCC)C(=O)OCC)C(=O)OCC`, the TGI in the experiment on A549 NSCLC, with BT-549 breast, in the experiment on CAKI-1 renal, in the experiment on DU-145 prostate, in the experiment with EKVX NSCLC and in the experiment with HCC-2998 colon was greater than 100 µM each time. The TGI with HS 578T breast, in the experiment on MALME-3M melanoma, in the experiment on MDA-MB-435, in the experiment with NCI-H23 lung, in the experiment with NCI-H522 lung and with SF-295 CNS was greater than 100 µM in each case. The TGI in the experiment on SF-539 CNS, in the experiment with SK-MEL-2 melanoma, in the experiment on SN12C renal and in the experiment with UO-31 renal was greater than 100 µM in each case.
`COC1OC(COC(=O)NCCCCC(=O)C(F)(F)F)C(O)C(O)C1O` (stereo not drawn): the TGI with A549 NSCLC, in the experiment with BT-549 breast, with CAKI-1 renal, in the experiment with DU-145 prostate, in the experiment with HCC-2998 colon and in the experiment on HS 578T breast was greater than 100 µM each time. Further, the TGI in the experiment on KM12 colon, in the experiment with LOX IMVI melanoma, in the experiment on MALME-3M melanoma, with MDA-MB-231 breast, in the experiment with MDA-MB-435 and in the experiment on NCI-H23 lung was greater than 100 µM in each case. Further, the TGI with SF-295 CNS, with SF-539 CNS, in the experiment on SK-MEL-2 melanoma, in the experiment with SN12C renal and in the experiment on UO-31 renal was greater than 100 µM throughout.
As for `O=C1N[C@@H]([C@H](CCCCCO)OC(=O)c2ccccc2)CO1`, the TGI in the experiment on A549 NSCLC, with BT-549 breast, in the experiment with CAKI-1 renal, with DU-145 prostate, with EKVX NSCLC and in the experiment with HS 578T breast was greater than 100 µM in each case. Also, the TGI in the experiment on KM12 colon, with LOX IMVI melanoma, in the experiment with MDA-MB-231 breast, in the experiment on MDA-MB-435, in the experiment on SF-295 CNS and with SF-539 CNS was greater than 100 µM each time. Moreover, the TGI in the experiment on SK-MEL-2 melanoma, in the experiment on SN12C renal and with UO-31 renal was greater than 100 µM in each case.
As to `O=C1CCc2cc3c(cc21)CC1(Cc2ccccc2C1)C3`, the TGI was greater than 100 µM with A549 NSCLC; 47.2 µM in the experiment on CAKI-1 renal; greater than 100 µM with DU-145 prostate; greater than 100 µM in the experiment on EKVX NSCLC; greater than 70.5 µM in the experiment with HCC-2998 colon; greater than 100 µM in the experiment on HS 578T breast. The TGI was greater than 100 µM in the experiment with KM12 colon; greater than 100 µM in the experiment on LOX IMVI melanoma; greater than 100 µM in the experiment with MALME-3M melanoma; greater than 100 µM in the experiment on MDA-MB-231 breast; 5.92 µM in the experiment with MDA-MB-435; greater than 86.5 µM in the experiment on NCI-H23 lung. The TGI was greater than 79.9 µM in the experiment with NCI-H522 lung; greater than 87.1 µM in the experiment with SF-295 CNS; 56.2 µM with SF-539 CNS; 6.37 µM in the experiment on SK-MEL-2 melanoma; greater than 100 µM in the experiment with SN12C renal; greater than 100 µM in the experiment with UO-31 renal.
`O=Cc1cc2c(o1)C(=O)c1ccccc1C2=O`: the TGI in the experiment on A549 NSCLC was 3.02 µM; in the experiment with BT-549 breast, 2.12 µM; in the experiment with CAKI-1 renal, 9.54 µM; in the experiment on DU-145 prostate, 0.427 µM; with EKVX NSCLC, 7.46 µM; in the experiment on HCC-2998 colon, 3.43 µM. Further, the TGI was 4.54 µM with KM12 colon; 0.679 µM in the experiment on LOX IMVI melanoma; 0.37 µM with MALME-3M melanoma; greater than 30.2 µM with MDA-MB-231 breast; 0.465 µM with NCI-H23 lung; 0.813 µM in the experiment on SF-295 CNS. Further, the TGI with SF-539 CNS was 2.25 µM; in the experiment on SK-MEL-2 melanoma it was 4.2 µM; in the experiment with SN12C renal, 0.779 µM; in the experiment with UO-31 renal, 4.6 µM.
Regarding `CCCCCCCCCCCC1N=C(N)NC(CCCO)=C1C(=O)OC` (stereo not drawn), the TGI was 30.4 µM in the experiment with A549 NSCLC; 23.1 µM in the experiment on BT-549 breast; 27.3 µM in the experiment with CAKI-1 renal; 34.6 µM in the experiment with DU-145 prostate; 40.6 µM with EKVX NSCLC; 5.02 µM in the experiment with HCC-2998 colon. Moreover, the TGI is 3.39 µM in the experiment with HS 578T breast; 2.81 µM in the experiment with KM12 colon; greater than 62.2 µM in the experiment on MALME-3M melanoma; 6.6 µM with MDA-MB-231 breast; 4.94 µM in the experiment with NCI-H23 lung; 3.72 µM in the experiment with NCI-H522 lung. Besides, the TGI with SF-295 CNS is 8.59 µM; with SF-539 CNS, 33.2 µM; in the experiment on SN12C renal, greater than 100 µM; in the experiment on UO-31 renal, 38.1 µM.
Regarding `CC(C)CNC(=O)Cn1c2c(c3ccccc31)CCCC2`, the TGI in the experiment on A549 NSCLC, in the experiment on BT-549 breast, with CAKI-1 renal, in the experiment with EKVX NSCLC, in the experiment on HCC-2998 colon and with HS 578T breast was greater than 100 µM throughout. Further, the TGI in the experiment with LOX IMVI melanoma, in the experiment on MALME-3M melanoma, with MDA-MB-435, with NCI-H23 lung, in the experiment on SF-295 CNS and in the experiment on SF-539 CNS was greater than 100 µM throughout. Further, the TGI in the experiment on SK-MEL-2 melanoma, with SN12C renal and in the experiment on UO-31 renal was greater than 100 µM in each case.
With `CCc1cc2c(cc1CCCC(=O)O)CC1(Cc3ccc(C(=O)O)cc3C1)C2` (stereo not drawn), the TGI with A549 NSCLC, with CAKI-1 renal, in the experiment with DU-145 prostate, with EKVX NSCLC, with HCC-2998 colon and with HS 578T breast was greater than 100 µM throughout. Also, the TGI in the experiment on KM12 colon, in the experiment with LOX IMVI melanoma, in the experiment with MALME-3M melanoma, with MDA-MB-231 breast, with MDA-MB-435 and with NCI-H23 lung was greater than 100 µM in each case. For the same compound, the TGI in the experiment on NCI-H522 lung, with SF-295 CNS, in the experiment with SF-539 CNS, in the experiment with SK-MEL-2 melanoma, with SN12C renal and in the experiment on UO-31 renal was greater than 100 µM each time.
Consider `O=C1C(=O)N(C2CCCCC2)C(=S)N1C1CCCCC1`, for which the TGI in the experiment on A549 NSCLC, in the experiment on CAKI-1 renal, in the experiment on DU-145 prostate, in the experiment on EKVX NSCLC, in the experiment on HCC-2998 colon and with HS 578T breast was greater than 100 µM in each case. For the same compound, the TGI in the experiment with KM12 colon, in the experiment on LOX IMVI melanoma, in the experiment with MALME-3M melanoma, with MDA-MB-231 breast, in the experiment on MDA-MB-435 and in the experiment with NCI-H23 lung was greater than 100 µM in each case. The TGI in the experiment on NCI-H522 lung, with SF-295 CNS, with SF-539 CNS, with SK-MEL-2 melanoma, in the experiment with SN12C renal and with UO-31 renal was greater than 100 µM throughout.
